Patent US20070065519A1, “Copper ion-producing composition” (priority 2005, published 2007)

Experiments:
[1] = time course of residual chlorine concentration in 42° C. hot water; conditions: chlorine level 0.4 ppm at start
[2] = tested on: Escherichia coli; assay: germicidal testing at 0.4 ppm chlorine (Comparative Example 2); assay type: cell-based; conditions: concentration of 0.4 ppm
[3] = tested on: Legionella ssp.; assay type: cell-based
[4] = tested on: Staphylococcus aureus; assay: germicidal testing at 0.4 ppm chlorine (Comparative Example 2); assay type: cell-based; conditions: concentration of 0.4 ppm

For OCl [Sodium hypochlorite], the “residual concentration in the water (chlorine)” value (“residual concentration” below) ([1]; after 30 minutes) was 0.3 ppm, the “residual concentration” value ([1]; after 60 minutes) was 0.2 ppm and the “residual concentration” value ([1]; at 90 minutes) was 0 ppm. For the same compound, the germicidal activity [2] was “no germicidal activity”, the germicidal activity [3] was “no germicidal activity” and the germicidal activity [4] was “no germicidal activity”.
